Each structure is given as a SMILES string. Some results are limits rather than exact numbers.

From patent US20110028507A1, “PYRIDINE DERIVATIVES AND METHODS OF USE THEREOF” (CRYSTALGENOMICS, INC., priority 2007, published 2011) come the findings set out here.

The target of assay [1] is T1, HIF-PH2 (EGLN1) (Homo sapiens, UniProt Q9GZT9).
T1 construct: made in house; host or cells: E. coli
Kind of assay: HIF-PH2 (PHD2) assay (fluorescence polarization method). It is filed as biochemical. The settings on record: 200 nM HIF PH2 enzyme, 50 nM peptide substrate, 30° C. one hour; read-out: IC50 (HIF PH2 inhibition activity). The protocol:
HIF-PH2 (EGLN1) was expressed from E. coli cells, and purified using two process: an Ni-affinity chromatography column and a size-exclusion chromatography column.
To evaluate activities of an HIF PH2 inhibitor, HIF PH2 enzyme that was first overexpressed by genetic recombination and then purified was used to perform an enzyme reaction. […] At this time, 2 mM ascorbic acid and 5 mM ketoglutarate with 100 μM FeCl2 or without FeCl2, were used together with crude enzyme. A concentration of HIF PH2 inhibitor to be tested was treated and reacted at 30° C. for one hour. After the reaction, the resulting reaction product was boiled at 95° C. for one minute to suppress the enzyme reaction.
To determine whether prolyl hydroxylation occurs in the substrate as the secondary reaction, 500 nM GST-VBC (GST-VHL-Elongin B-Elongin C) protein was added to a reaction buffer (50 mM Tris-Cl (pH8.0), 120 mM NaCl, 0.5% Nonidet P40), and a GST-VBC binding reaction was carried out at room temperature for 30 minutes.
A fluorescence polarization value of a sample that is not treated with the HIF PH2 inhibitor was used as 100% control, and the activities of the HIF PH2 inhibitor were measured as percentage of the remaining HIF PH2 enzyme activity in samples treated with a concentration of the HIF PH2 inhibitor to be tested.
(In general: Fluorescence polarisation rises when a labelled molecule tumbles more slowly, as on binding a larger partner.)

Assay [2] relates to EPO. Kind of assay: Human EPO immunoassay (ELISA of Hep3B culture media). It counts as cell-based. The following applies: Hep3B cells, compound at 100 μM, 24-hour incubation; for EPO (mIU/ml): culture media ELISA; for fold induction at 100 µM: Homo sapiens, read-out: Fold Induction over control (EPO Induction). The protocol: Human cells derived from hepatocarcinoma (Hep3B) tissue (see, e.g., American Type Culture Collection, Manassas Va.) were grown at 37° C., 20% O2, 5% CO2 in DMEM (GIBCO)+10% FBS, 4.5 g/L D-Glucose; L-Glutamate and 110 mg/L sodium pyruvate. Ninety-six well plates were seeded with 4×10^4 HEP3B cells/well. The media was removed and replaced with DMEM+10% FBS. Compounds were added to wells at concentrations between 1 μM-100 μM for a 24-hour incubation. Cell culture media was harvested and EPO concentration was determined using a Human Erythropoietin Quantikine IVD ELISA Kit (R&D Systems®, Minneapolis, Minn.) following the manufacturer's instructions for the benchtop assay.

T1 sequence (Q9GZT9 whole entry, species assumed): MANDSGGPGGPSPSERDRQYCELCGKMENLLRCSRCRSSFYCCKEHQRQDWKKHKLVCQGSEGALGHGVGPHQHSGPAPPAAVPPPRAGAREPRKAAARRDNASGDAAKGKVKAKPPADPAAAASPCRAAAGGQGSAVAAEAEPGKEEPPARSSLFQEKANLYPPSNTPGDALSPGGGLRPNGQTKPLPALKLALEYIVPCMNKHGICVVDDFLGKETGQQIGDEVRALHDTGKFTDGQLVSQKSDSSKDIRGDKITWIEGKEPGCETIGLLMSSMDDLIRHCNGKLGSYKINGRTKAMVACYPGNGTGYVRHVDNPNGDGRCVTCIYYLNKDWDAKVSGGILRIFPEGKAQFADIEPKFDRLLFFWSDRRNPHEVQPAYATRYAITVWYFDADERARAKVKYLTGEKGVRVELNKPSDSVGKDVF

In the case of `O=C(NCc1cccnc1)c1nc(Br)c2c(sc3ccccc32)c1O` [1-Bromo-4-hydroxy-benzo[4,5]thieno[3,2-c]pyridine-3-carboxylic acid (pyridin-3-ylmethyl)-amide], the half-inhibitory concentration (IC50) in assay [1] fell in the range of 26 to 100 µM.
Turning to `C[C@H](NC(=O)c1ncc2ccoc2c1O)C(=O)O` [(S)-2-[(7-Hydroxy-furo[3,2-c]pyridine-6-carbonyl)-amino]-propionic acid], the IC50 in assay [1] was above 201 µM.
For the compound `COC(=O)CNC(=O)c1nc(Cl)c2c(ccn2S(=O)(=O)c2ccccc2)c1O` [[(1-Benzenesulfonyl-7-chloro-4-hydroxy-1H-pyrrolo[2,3-c]pyridine-5-carbonyl)-amino]-acetic acid methyl ester], the half-inhibitory concentration (IC50) in assay [1] is below 25 µM.
Consider `O=C(O)CNC(=O)c1nc(Cl)c2c(ccn2S(=O)(=O)c2ccccc2)c1O` [[(1-Benzenesulfonyl-7-chloro-4-hydroxy-1H-pyrrolo[2,3-c]pyridine-5-carbonyl)-amino]-acetic acid], for which the half-maximal inhibitory concentration (IC50) in assay [1] was below 25 µM. In addition, in assay [2], the “EPO (mIU/ml)” value was “I (I = 0-20 mIU/ml)” and the fold induction at 100 µM is below 20.
Consider `O=C(O)CNC(=O)c1nc(Br)c2c(sc3ccccc32)c1F` [[(1-Bromo-4-fluoro-benzo[4,5]thieno[3,2-c]pyridine-3-carbonyl)-amino]-acetic acid], for which, in assay [1], the concentration for half-maximal inhibition (IC50) is below 25 µM.
In the case of `O=C(O)CNC(=O)c1nc(Cl)c2c(sc3cc(O)ccc32)c1O` [[(1-Chloro-4,7-dihydroxy-benzo[4,5]thieno[3,2-c]pyridine-3-carbonyl)-amino]-acetic acid], in assay [1], the IC50 is below 25 µM. Moreover, in assay [2], the “EPO (mIU/ml)” value is listed as “I (I = 0-20 mIU/ml)” and the fold induction at 100 µM was below 20.
On to `O=C(O)CNC(=O)c1nc(Cl)c2c(sc3ccc(O)cc32)c1O` [[(1-Chloro-4,8-dihydroxy-benzo[4,5]thieno[3,2-c]pyridine-3-carbonyl)-amino]-acetic acid], for which the IC50 in assay [1] was below 25 µM. For the same compound, in assay [2], the “EPO (mIU/ml)” value is given as “I (I = 0-20 mIU/ml)” and the fold induction at 100 µM was below 20.
As for `CC(C)Oc1ccc2c(c1)sc1c(O)c(C(=O)NCC(=O)O)nc(Cl)c12` [[(1-Chloro-4-hydroxy-7-isopropoxy-benzo[4,5]thieno[3,2-c]pyridine-3-carbonyl)-amino]-acetic acid], the IC50 in assay [1] was below 25 µM. In assay [2], the “EPO (mIU/ml)” value was “L (L = >61 mIU/ml)” and the fold induction at 100 µM fell in the range of 21 to 50.
`COc1ccc2c(c1)sc1c(O)c(C(=O)NCC(=O)O)nc(Cl)c12` [[(1-Chloro-4-hydroxy-7-methoxy-benzo[4,5]thieno[3,2-c]pyridine-3-carbonyl)-amino]-acetic acid]: the IC50 in assay [1] is below 25 µM. For the same compound, in assay [2], the “EPO (mIU/ml)” value is recorded as “I (I = 0-20 mIU/ml)” and the fold induction at 100 µM lay within 21 to 50.
Turning to `O=C(O)CNC(=O)c1nc(Cl)c2c(sc3ccc(S(=O)(=O)Cc4ccccc4)cc32)c1O` [[(1-Chloro-4-hydroxy-8-phenylmethanesulfonyl-benzo[4,5]thieno[3,2-c]pyridine-3-carbonyl)-amino]-acetic acid], the 50% inhibitory concentration (IC50) in assay [1] was 26 to 100 µM.
`O=C(O)CNC(=O)c1nc(Cl)c2c(sc3ccc(C(F)(F)F)cc32)c1O` [[(1-Chloro-4-hydroxy-8-trifluoromethyl-benzo[4,5]thieno[3,2-c]pyridine-3-carbonyl)-amino]-acetic acid]: the concentration for half-maximal inhibition (IC50) in assay [1] was below 25 µM. Besides, in assay [2], the “EPO (mIU/ml)” value is “J (J = 21-40 mIU/ml)” and the fold induction at 100 µM was in the range of 21 to 50.
Turning to `CCN(CC)c1ccc2sc3c(O)c(C(=O)NCC(=O)O)nc(Cl)c3c2c1` [[(1-Chloro-8-diethylamino-4-hydroxy-benzo[4,5]thieno[3,2-c]pyridine-3-carbonyl)-amino]-acetic acid], the IC50 in assay [1] was below 25 µM. In addition, in assay [2], the “EPO (mIU/ml)” value is given as “J (J = 21-40 mIU/ml)” and the fold induction at 100 µM lay in the range of 21 to 50.
For `CCS(=O)(=O)c1ccc2sc3c(O)c(C(=O)NCC(=O)O)nc(Cl)c3c2c1` [[(1-Chloro-8-ethanesulfonyl-4-hydroxy-benzo[4,5]thieno[3,2-c]pyridine-3-carbonyl)-amino]-acetic acid], the IC50 in assay [1] fell in the range of 26 to 100 µM.
For `CCNc1ccc2sc3c(O)c(C(=O)NCC(=O)O)nc(Cl)c3c2c1` [[(1-Chloro-8-ethylamino-4-hydroxy-benzo[4,5]thieno[3,2-c]pyridine-3-carbonyl)-amino]-acetic acid], in assay [1], the 50% inhibitory concentration (IC50) was below 25 µM. In assay [2], the “EPO (mIU/ml)” value is reported as “K (K = 41-60 mIU/ml)” and the fold induction at 100 µM lay within 51 to 70.
With `CC(C)Oc1c(C(=O)NCC(=O)O)nc(Cl)c2c1sc1ccc(O)cc12` [[(1-Chloro-8-hydroxy-4-isopropoxy-benzo[4,5]thieno[3,2-c]pyridine-3-carbonyl)-amino]-acetic acid], the concentration for half-maximal inhibition (IC50) in assay [1] fell in the range of 101 to 200 µM.
Take `COc1c(C(=O)NCC(=O)O)nc(Cl)c2c1sc1ccc(O)cc12` [[(1-Chloro-8-hydroxy-4-methoxy-benzo[4,5]thieno[3,2-c]pyridine-3-carbonyl)-amino]-acetic acid]: the IC50 in assay [1] lay within 101 to 200 µM.
For `Nc1c(C(=O)NCC(=O)O)nc(Br)c2c1sc1ccccc12` [[(4-Amino-1-bromo-benzo[4,5]thieno[3,2-c]pyridine-3-carbonyl)-amino]-acetic acid], the IC50 in assay [1] was above 201 µM.
For `O=C(O)CN(O)C(=O)c1ncc2c(sc3ccccc32)c1Cl` [[(4-Chloro-benzo[4,5]thieno[3,2-c]pyridine-3-carbonyl)-hydroxy-amino]-acetic acid], in assay [1], the IC50 was above 201 µM.
Take `Cc1nc(C(=O)NCC(=O)O)c(O)c2sc3ccccc3c12` [[(4-Hydroxy-1-methyl-benzo[4,5]thieno[3,2-c]pyridine-3-carbonyl)-amino]-acetic acid]: in assay [2], the “EPO (mIU/ml)” value was “J (J = 21-40 mIU/ml)” and the fold induction at 100 µM was above 71.
`O=C(O)CNC(=O)c1ncc2c(cnn2-c2ccccn2)c1O` [[(4-Hydroxy-1-pyridin-2-yl-1H-pyrazolo[3,4-c]pyridine-5-carbonyl)-amino]-acetic acid]: the IC50 in assay [1] is below 25 µM. Further, in assay [2], the “EPO (mIU/ml)” value is reported as “I (I = 0-20 mIU/ml)” and the fold induction at 100 µM is below 20.
`O=C(O)CNC(=O)c1ncc2c(oc3ccccc32)c1O` [[(4-Hydroxy-benzo[4,5]furo[3,2-c]pyridine-3-carbonyl)-amino]-acetic acid]: in assay [2], the “EPO (mIU/ml)” value is listed as “I (I = 0-20 mIU/ml)” and the fold induction at 100 µM is below 20.
The matching figures for `O=C(O)CNC(=O)c1ncc2c(sc3ccccc32)c1O` [[(4-Hydroxy-benzo[4,5]thieno[3,2-c]pyridine-3-carbonyl)-amino]-acetic acid]: “I (I = 0-20 mIU/ml)” and below 20.
In the case of `O=C(O)CNC(=O)c1nc(Cl)c2[nH]ccc2c1O` [[(7-Chloro-4-hydroxy-1H-pyrrolo[2,3-c]pyridine-5-carbonyl)-amino]-acetic acid], the IC50 in assay [1] was above 201 µM.
Turning to `Cc1nc(C(=O)NCC(=O)O)c(O)c2sc3cc(F)ccc3c12` [[(7-Fluoro-4-hydroxy-1-methyl-benzo[4,5]thieno[3,2-c]pyridine-3-carbonyl)-amino]-acetic acid], in assay [1], the IC50 is below 25 µM. Besides, in assay [2], the “EPO (mIU/ml)” value is given as “L (L = >61 mIU/ml)” and the fold induction at 100 µM fell in the range of 21 to 50.
As to `O=C(O)CNC(=O)c1ncc2c(-c3ccccc3)coc2c1O` [[(7-Hydroxy-3-phenyl-furo[3,2-c]pyridine-6-carbonyl)-amino]-acetic acid], in assay [1], the half-inhibitory concentration (IC50) is 101 to 200 µM.
Take `O=C(O)CNC(=O)c1ncc2ccoc2c1O` [[(7-Hydroxy-furo[3,2-c]pyridine-6-carbonyl)-amino]-acetic acid]: the half-maximal inhibitory concentration (IC50) in assay [1] is above 201 µM.
Turning to `O=C(O)CNC(=O)c1nc(Cl)c2c(sc3ccc([S+]([O-])c4ccccc4)cc32)c1O` (centres unmarked) [[(8-Benzenesulfinyl-1-chloro-4-hydroxy-benzo[4,5]thieno[3,2-c]pyridine-3-carbonyl)-amino]-acetic acid], the IC50 in assay [1] is below 25 µM.
Regarding `O=C(O)CNC(=O)c1nc(Cl)c2c(sc3ccc(S(=O)(=O)c4ccccc4)cc32)c1O` [[(8-Benzenesulfonyl-1-chloro-4-hydroxy-benzo[4,5]thieno[3,2-c]pyridine-3-carbonyl)-amino]-acetic acid], the IC50 in assay [1] was below 25 µM.
On to `O=C(O)CNC(=O)c1nc(Cl)c2c(sc3ccc(NCc4ccccc4)cc32)c1O` [[(8-Benzylamino-1-chloro-4-hydroxy-benzo[4,5]thieno[3,2-c]pyridine-3-carbonyl)-amino]-acetic acid], for which the concentration for half-maximal inhibition (IC50) in assay [1] was below 25 µM.
In the case of `O=C(O)CN(O)C(=O)c1ncc2c(sc3ccccc32)c1O` [[Hydroxy-(4-hydroxy-benzo[4,5]thieno[3,2-c]pyridine-3-carbonyl)-amino]-acetic acid], the concentration for half-maximal inhibition (IC50) in assay [1] was 101 to 200 µM.

By IC50 is commonly meant the concentration needed to halve the response being measured.
